From ChEMBL document CHEMBL2413072, “Synthesis and in vitro anticancer studies of novel C-2 arylidene congeners of lantadenes” (2013)

Columns and labels:
Assay type in all cases: functional
[1] = system: UO-31; assay: Growth inhibition of human UO31 cells assessed as cell growth at 10^-7 M by sulforhodamine B assay; settings: read-out: Activity
[2] = system: PC-3; assay: Growth inhibition of human PC3 cells assessed as cell growth at 10^-7 M by sulforhodamine B assay; settings: read-out: Activity
[3] = system: MDA-MB-231; assay: Growth inhibition of human MDA-MB-231 cells assessed as cell growth at 10^-4 M by sulforhodamine B assay; settings: read-out: Activity
[4] = system: DU-145; assay: Growth inhibition of human DU145 cells assessed as cell growth at 10^-4 M by sulforhodamine B assay; settings: read-out: Activity
[5] = system: BT-549; assay: Growth inhibition of human BT549 cells assessed as cell growth at 10^-8 M by sulforhodamine B assay; settings: read-out: Activity
[6] = system: HT-29; assay: Growth inhibition of human HT-29 cells assessed as cell growth at 10^-6 M by sulforhodamine B assay; settings: read-out: Activity
[7] = system: 786-0; assay: Growth inhibition of human 786-0 cells by sulforhodamine B assay
[8] = system: MDA-MB-468; assay: Growth inhibition of human MDA-MB-468 cells assessed as cell growth at 10^-4 M by sulforhodamine B assay; settings: read-out: Activity
[9] = system: SK-MEL-5; assay: Growth inhibition of human SK-MEL-5 cells assessed as cell growth at 10^-6 M by sulforhodamine B assay; settings: read-out: Activity
[10] = system: U-251; assay: Growth inhibition of human U251 cells assessed as cell growth at 10^-7 M by sulforhodamine B assay; settings: read-out: Activity
[11] = system: OVCAR-4; assay: Growth inhibition of human OVCAR4 cells assessed as cell growth at 10^-7 M by sulforhodamine B assay; settings: read-out: Activity
[12] = system: MDA-MB-231; assay: Growth inhibition of human MDA-MB-231 cells by sulforhodamine B assay
[13] = system: SN12C; assay: Growth inhibition of human SN12C cells assessed as cell growth at 10^-4 M by sulforhodamine B assay; settings: read-out: Activity
[14] = Growth inhibition of human NCI-ADR-RES cells by sulforhodamine B assay
[15] = Growth inhibition of human HCC2998 cells assessed as cell growth at 10^-4 M by sulforhodamine B assay; settings: HCC 2998, read-out: Activity
[16] = system: A498; assay: Growth inhibition of human A498 cells assessed as cell growth at 10^-6 M by sulforhodamine B assay; settings: read-out: Activity
[17] = system: OVCAR-5; assay: Growth inhibition of human OVCAR5 cells assessed as cell growth at 10^-6 M by sulforhodamine B assay; settings: read-out: Activity
[18] = system: Malme-3M; assay: Growth inhibition of human MALME-3M cells by sulforhodamine B assay
[19] = system: ACHN; assay: Growth inhibition of human ACHN cells assessed as cell growth at 10^-4 M by sulforhodamine B assay; settings: read-out: Activity
[20] = system: MDA-MB-468; assay: Growth inhibition of human MDA-MB-468 cells assessed as cell growth at 10^-7 M by sulforhodamine B assay; settings: read-out: Activity
[21] = system: MOLT-4; assay: Growth inhibition of human MOLT4 cells assessed as cell growth at 10^-7 M by sulforhodamine B assay; settings: read-out: Activity
[22] = system: OVCAR-4; assay: Growth inhibition of human OVCAR4 cells assessed as cell growth at 10^-8 M by sulforhodamine B assay; settings: read-out: Activity
[23] = system: SR; assay: Growth inhibition of human SR cells assessed as cell growth at 10^-4 M by sulforhodamine B assay; settings: read-out: Activity
[24] = Growth inhibition of human NCI-ADR-RES cells assessed as cell growth at 10^-4 M by sulforhodamine B assay; settings: read-out: Activity
[25] = system: NCI-H322M; assay: Growth inhibition of human NCI-H322M cells assessed as cell growth at 10^-4 M by sulforhodamine B assay; settings: read-out: Activity
[26] = system: SF-295; assay: Growth inhibition of human SF295 cells assessed as cell growth at 10^-7 M by sulforhodamine B assay; settings: read-out: Activity
[27] = system: SW-620; assay: Growth inhibition of human SW620 cells assessed as cell growth at 10^-4 M by sulforhodamine B assay; settings: read-out: Activity
[28] = system: UACC-257; assay: Growth inhibition of human UACC257 cells assessed as cell growth at 10^-6 M by sulforhodamine B assay; settings: read-out: Activity
[29] = system: OVCAR-5; assay: Growth inhibition of human OVCAR5 cells assessed as cell growth at 10^-8 M by sulforhodamine B assay; settings: read-out: Activity
[30] = system: KM12; assay: Growth inhibition of human KM12 cells assessed as cell growth at 10^-6 M by sulforhodamine B assay; settings: read-out: Activity
[31] = system: SF-268; assay: Growth inhibition of human SF268 cells assessed as cell growth at 10^-6 M by sulforhodamine B assay; settings: read-out: Activity
[32] = system: SNB-75; assay: Growth inhibition of human SNB75 cells assessed as cell growth at 10^-4 M by sulforhodamine B assay; settings: read-out: Activity
[33] = system: UACC-62; assay: Growth inhibition of human UACC62 cells assessed as cell growth at 10^-4 M by sulforhodamine B assay; settings: read-out: Activity
[34] = system: A498; assay: Growth inhibition of human A498 cells by sulforhodamine B assay
[35] = Growth inhibition of human HCC2998 cells by sulforhodamine B assay
[36] = system: CCRF-CEM; assay: Growth inhibition of human CCRF-CEM cells assessed as cell growth at 10^-6 M by sulforhodamine B assay; settings: read-out: Activity
[37] = system: SF-295; assay: Growth inhibition of human SF295 cells assessed as cell growth at 10^-8 M by sulforhodamine B assay; settings: read-out: Activity
[38] = system: OVCAR-3; assay: Growth inhibition of human OVCAR3 cells assessed as cell growth at 10^-7 M by sulforhodamine B assay; settings: read-out: Activity
[39] = system: SF-268; assay: Growth inhibition of human SF268 cells assessed as cell growth at 10^-4 M by sulforhodamine B assay; settings: read-out: Activity
[40] = system: HL-60(TB); assay: Growth inhibition of human HL-60(TB) cells assessed as cell growth at 10^-7 M by sulforhodamine B assay; settings: read-out: Activity
[41] = system: HCT-15; assay: Growth inhibition of human HCT15 cells assessed as cell growth at 10^-7 M by sulforhodamine B assay; settings: read-out: Activity
[42] = system: 786-0; assay: Growth inhibition of human 786-0 cells assessed as cell growth at 10^-8 M by sulforhodamine B assay; settings: read-out: Activity
[43] = read-out: LC50 (the source's name)
[44] = read-out: pLC50 (the source's name) (converted)

`CC(C)=CC(=O)O[C@@H]1CC(C)(C)C[C@H]2C3=CC[C@@H]4[C@@]5(C)CC[C@H](O)C(C)(C)[C@@H]5CC[C@@]4(C)[C@]3(C)CC[C@@]12C(=O)O` [Reduced Lantadene B] showed a growth at 0.1 µM [1] of 95%, a growth at 0.1 µM [2] of 90% and a growth at 100 µM [3] of -79%. For the same molecule, the growth at 100 µM [4] was -75%, the growth at 0.01 µM [5] was 97% and the growth at 1 µM [6] was 89%. It also gave a GI50 ([7]; read-out: GI50) of 3.06 µM, a CC50 [7, 43] of 50.7 µM and a TGI ([7]; read-out: TGI) of 11.5 µM. It also gave a GI50 ([7]; read-out: pGI50 (converted)) of 3.09 µM, a CC50 [7, 44] of 51.3 µM and a TGI ([7]; read-out: pTGI (converted)) of 11.5 µM. The growth at 100 µM [8] was -77%, the growth at 1 µM [9] was 77% and the growth at 0.1 µM [10] was 96%. It also gave a growth at 0.1 µM [11] of 96%, a GI50 ([12]; read-out: GI50) of 4.56 µM and a CC50 [12, 43] of 54.7 µM. For the same molecule, the TGI ([12]; read-out: TGI) was 19.4 µM, the GI50 ([12]; read-out: pGI50 (converted)) was 4.57 µM and the CC50 [12, 44] was 55 µM. For the same molecule, the TGI ([12]; read-out: pTGI (converted)) was 19.5 µM, the growth at 100 µM [13] was -91% and the GI50 ([14]; read-out: GI50) was 5.83 µM. It also gave a CC50 [14, 43] greater than 100 µM, a TGI ([14]; read-out: TGI) of 35.9 µM and a GI50 ([14]; read-out: pGI50 (converted)) of 5.89 µM. The CC50 [14, 44] was greater than 100 µM, the TGI ([14]; read-out: pTGI (converted)) was 36.3 µM and the growth at 100 µM [15] was -66%. The growth at 1 µM [16] was 79%, the growth at 1 µM [17] was 106% and the GI50 ([18]; read-out: GI50) was 13.7 µM. For the same molecule, the CC50 [18, 43] was greater than 100 µM, the TGI ([18]; read-out: TGI) was 38.6 µM and the GI50 ([18]; read-out: pGI50 (converted)) was 13.8 µM. For the same molecule, the CC50 [18, 44] was greater than 100 µM, the TGI ([18]; read-out: pTGI (converted)) was 38.9 µM and the growth at 100 µM [19] was -75%. It also gave a growth at 0.1 µM [20] of 98%, a growth at 0.1 µM [21] of 94% and a growth at 0.01 µM [22] of 100%. The growth at 100 µM [23] was -26%, the growth at 100 µM [24] was -30% and the growth at 100 µM [25] was -70%. It also gave a growth at 0.1 µM [26] of 80%, a growth at 100 µM [27] of -15% and a growth at 1 µM [28] of 98%. It also gave a growth at 0.01 µM [29] of 95%, a growth at 1 µM [30] of 48% and a growth at 1 µM [31] of 95%. It also gave a growth at 100 µM [32] of -38%, a growth at 100 µM [33] of -81% and a GI50 ([34]; read-out: GI50) of 2.83 µM. It also gave a CC50 [34, 43] of 41.3 µM, a TGI ([34]; read-out: TGI) of 13.7 µM and a GI50 ([34]; read-out: pGI50 (converted)) of 2.82 µM. It also gave a CC50 [34, 44] of 41.7 µM, a TGI ([34]; read-out: pTGI (converted)) of 13.8 µM and a GI50 ([35]; HCC 2998, read-out: GI50) of 3.72 µM. For the same molecule, the CC50 ([35]; HCC 2998, read-out: LC50 (the source's name)) was 62.9 µM, the TGI ([35]; HCC 2998, read-out: TGI) was 15.3 µM and the GI50 ([35]; HCC 2998, read-out: pGI50 (converted)) was 3.72 µM. It also gave a CC50 ([35]; HCC 2998, read-out: pLC50 (the source's name) (converted)) of 63.1 µM, a TGI ([35]; HCC 2998, read-out: pTGI (converted)) of 15.5 µM and a growth at 1 µM [36] of 75%. The growth at 0.01 µM [37] was 95%, the growth at 0.1 µM [38] was 105% and the growth at 100 µM [39] was -51%. The growth at 0.1 µM [40] was 105%, the growth at 0.1 µM [41] was 87% and the growth at 0.01 µM [42] was 97%.
